Test [1] has as its system HUVECs. Nature of the test: RT-qPCR and Western blot of gene expression in HUVECs. It counts as cell-based, human. Particulars: for H19 expression (RT-qPCR): overnight treatment vs vehicle. Here is the method: HUVECs (Lonza, CC-2517) were maintained in a growth medium composed of endothelial basal medium (EBM-2, CC-3156) supplemented with EGM-2 MV BulletKit (CC-4147, Lonza). Cells were used between passages P2-P5. For cytokine treatment, cells were incubated overnight with indicated concentrations of TNF-α, TNF-α plus IL-1β, or Hcy in endothelial basal medium. Cells were transfected in a 24-well plate scale. To prepare siRNA transfection solution for each well, 10 pmol of siCon, siH19, or siTET1 were mixed with 25 μl of OPTI-MEM by gentle pipetting. In parallel, 1 μl of Lipofectamine 3000 was mixed with 25 μl of OPTI-MEM. Following 5 min of incubation at RT, the two were mixed by gentle pipetting and incubated for 10 min at RT to allow siRNA/lipid complexes to form. At the end of incubation, the 50 μl of transfection solution was used to resuspend cell pellet (3×10^4 cells/well). After incubation at room temperature (RT) for 10 min, growth medium was added at a ratio of 1:9 (1 volume of transfection solution/9 volumes of growth medium) and the cell suspension was transferred to a culture plate. For cytokine treatment combined with H19 knockdown, cells were transfected with siCon or siH19 for 24 h, followed by addition of TNF-α at a final concentration of 10 ng/ml for an additional 24 h before RNA extraction. For iLet 7 rescue experiments, 10 pmol of siCon+iCon, iCon+siH19, or siH19+iLet7 were used for each well of 3×10^4 cells. Forty-eight hours after the transfection, RNA and protein were extracted for analysis.
To prepare DNA/lipid complexes for pH19/pTET1 overexpression (FIG. 23) or pTET1 overexpression rescue (FIG. 22) experiments, empty vector (0.5 μg), pH19 ([…]), or pTET1 (0.75 μg) were mixed with 1 μl of P3000 in 25 μl of OPTI-MEM by gentle pipetting. In parallel, 0.75 μl of Lipofectamin 3000 was mixed with 25 μl of OPTI-MEM. The contents in the two tubes were mixed by gentle pipetting and incubated at RT for 5 min. The resulting DNA/lipid complexes (50 μl) were added to one well of cells (8×10^4) which had been seeded in a 24-well plate in growth medium the night before. Following incubation at RT for 10 min, 300 μl of OPTI-MEM was added and cells were incubated in a tissue culture incubator for 4-6 h. […]
HUVECs in 24-well plates were dissociated with 0.25% trypsin. […] Bands on Western blot gels were quantified using ImageJ. […]
Total RNAs were extracted using PureLink RNA Mini Kit (Ambion, catalog number 12183018A). cDNA was synthesized using PrimeScript RT Reagent Kit (TAKARA, RR037A) in a 20 μl reaction containing 0.5-1 μg of total RNA. Real-time quantitative PCR was performed in a 15 μl reaction containing 0.5-1 μl of cDNA using iQSYBRGreen (Bio-Rad) in a Bio-Rad iCycler. […]
In general terms: In qPCR the cycle at which signal appears reflects the starting amount.

Test [2] concerns UtLM and ht-UtLM leiomyoma cells. The test is described as follows: RT-qPCR and Western blot of gene expression in leiomyoma cells. Type of test: cell-based, human. Particulars: ht-UtLM cells, 24 h, 10^−8M. The text has this:
Antibodies for TET3 (GeneTex, GTX121453; used at a dilution of 1/500), TGFBR2 (Abcam, ab184948; used at a dilution of 1/1000), TSP1 (Abcam, ab85762; used at a dilution of 1/500), MED12 (Novus Biological, NB100-2357; used at a dilution of 1/500), HMGA2 (Proteintech, 20795-1-AP; used at a dilution of 1/500), GRAF1 (Cell Signaling, 8802; used at a dilution of 1/500), SPARC (Cell Signaling, 8725; used at a dilution of 1/500), COL3A1 (LS-Bio, LS-C159386; used at a dilution of 1/1000), COL4A1 (LS-Bio, LS-C100552; used at a dilution of 1/500), COL5A2 (Origene, TA809611; used at a dilution of 1/500) and GAPDH (Abcam, ab128915; used at a dilution of 1/10000) were purchased. Human H19 siRNA (siH19) and control siRNA (siCon) were previously described (Ghazal S et al., 2015, EMBO Mol Med 7:996-1003). siTET3 (Ambion, 4392420/s47239), estradiol ([…], Sigma), and progesterone ([…], Sigma) were purchased. Estradiol and progesterone were dissolved in DMSO and used at a final concentration of 10^-8M. ht-UtLM cells tested negative for mycoplasma contamination were maintained in MEM (Sigma, #M3024) supplemented with 20% fetal bovine serum, 1×MEM Vitamin Solution (Invitrogen #11120-052), 1×MEM Amino Acids Solution (Invitrogen, #11130-051), and 1×MEM Non-Essential Amino Acids (Invitrogen #11140-050). Primary UtLM-1 and UtLM-2 cells were maintained in DMEM (Gibco, #10567014) supplemented with 20% fetal bovine serum, and 1% penicillin/streptomycin, 1% amphotericin B. All cells were transfected in a 24-well plate scale. To prepare siRNA transfection solution for each well, 10 pmol (5 pmol for primary cells) of siCon, siH19, or siTET3 were mixed with 25 μl of OPTI-MEM by gentle pipetting. In parallel, 1 μl of Lipofectamine 3000 was mixed with 25 μl of OPTI-MEM. Following 5 min of incubation at room temperature, the two were mixed by gentle inverting and incubated for 10 min at room temperature to allow siRNA/lipid complexes to form. At the end of incubation, the 50 μl of transfection solution was used to re-suspend the cell pellet (3×10^4 cells). After incubation at room temperature for 10 min, growth medium was added at a ratio of 1:9 (1 volume of transfection solution/9 volumes of growth medium), and the cell suspension was transferred to a new culture dish. After overnight incubation in a tissue culture incubator, the medium was replaced with fresh growth medium. For iLet 7 rescue experiments, 10 pmol of siCon/siH19 and 10 pmol of iCon/iLet7 were used for each well of 3×10^4 cells. RNA, genomic DNA, and protein were extracted and analyzed at the indicated time points following transfection.

As for `N[C@@H](CCS)C(=O)O` [Hcy, L-Homocysteine], in test [1], the “H19 expression (RT-qPCR)” value is listed as “dose-dependently upregulates H19”.
Consider “IL-1β: Recombinant human IL-1β (R&D Systems, 201-LB), combined with TNF-α”, for which the “H19 expression (RT-qPCR)” value in test [1] is on record as “additive effect”.
For the compound TNF-α, the “expression of TET1, TGFBR2 and TSP1 (RT-qPCR)” value in test [1] (TNF-α 10 ng/ml 24 h vs vehicle) was “upregulated expression of TET1, TGFBR2 and TSP1”. Besides, in test [1], the “H19 expression (RT-qPCR)” value is on record as “stimulates H19 expression in a dose-dependent manner”.
As to `CC(=O)[C@H]1CC[C@H]2[C@@H]3CCC4=CC(=O)CC[C@]4(C)[C@H]3CC[C@]12C` [progesterone], in test [2], the H19 expression result is given as “did not affect H19 expression”.

Source of the values: US20220160751A1, “METHODS OF TREATMENT OF DISEASES AND DISORDERS ASSOCIATED WITH INCREASED TET LEVEL, INCREASED H19 LEVEL, INCREASED LEVEL OF TGF SIGNALING, OR ANY COMBINATION THEREOF” (YALE UNIVERSITY, priority 2019, published 2022).
